From patent publication US6737383B1, “Herbicidal oxadiazolidines” (priority 1999, dated 2004)

Columns and labels:
bedstraw = test: Test B pre/postemergence bedstraw; assay type: in vivo, Galium aparine
Summary of the method: (§1)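 Test chemicals in a non-phytotoxic solvent mixture with surfactant were sprayed preemergence onto planted seeds and postemergence onto plants 2 to 18 cm tall (1- to 4-leaf stage). After twelve to sixteen days in a greenhouse, injury was visually rated against untreated controls from 0 (no effect) to 10 (complete control).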

blackgrass = test: Test B pre/postemergence blackgrass; assay type: in vivo, Alopecurus myosuroides
Summary of the method: as §1

surinam grass = test: Test B pre/postemergence surinam grass; assay type: in vivo, Brachiaria decumbens
Summary of the method: as §1

cocklebur = test: Test B pre/postemergence cocklebur; assay type: in vivo, Xanthium strumarium
Summary of the method: as §1

corn = test: Test B pre/postemergence corn; assay type: in vivo, Zea mays
Summary of the method: as §1

crabgrass = test: Test B pre/postemergence crabgrass; assay type: in vivo, Digitaria sanguinalis
Summary of the method: as §1

rape = test: Test B pre/postemergence rape; assay type: in vivo, Brassica napus
Summary of the method: as §1

soybean = test: Test B pre/postemergence soybean; assay type: in vivo, Glycine max
Summary of the method: as §1

sugar beet = test: Test B pre/postemergence sugar beet; assay type: in vivo, Beta vulgaris
Summary of the method: as §1

velvetleaf = test: Test B pre/postemergence velvetleaf; assay type: in vivo, Abutilon theophrasti
Summary of the method: as §1

wheat = test: Test B pre/postemergence wheat; assay type: in vivo, Triticum aestivum
Summary of the method: as §1

wild oat = test: Test B pre/postemergence wild oat; assay type: in vivo, Avena fatua
Summary of the method: as §1

purple nutsedge = test: Test B pre/postemergence purple nutsedge; assay type: in vivo, Cyperus rotundus
Summary of the method: as §1

rice = test: Test B flood test rice; assay type: in vivo, Oryza sativa
Summary of the method: (§2)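 Plants were grown to the 2-leaf stage before treatment with test chemical, then held in a greenhouse for twelve to sixteen days. Injury was visually rated against untreated controls on a 0–10 scale, where 0 is no effect and 10 is complete control.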

smallflower flatsedge = test: Test B flood test smallflower flatsedge; assay type: in vivo, Cyperus difformis
Summary of the method: as §2

duck salad = test: Test B flood test duck salad; assay type: in vivo, Heteranthera limosa
Summary of the method: as §2

bamyardgrass = test: Test B flood test barnyardgrass; assay type: in vivo, Echinochloa crus-galli
Summary of the method: as §2

[1] = Postemergence, Rate 125 g/ha, scale of 0 to 10 where 0 is no effect and 10 is complete control
[2] = Preemergence, Rate 125 g/ha, 0 is no effect, 10 is complete control
[3] = Preemergence, Rate 250 g/ha, scale 0 to 10, 0 is no effect, 10 is complete control
[4] = Preemergence, Rate 500 g/ha, scale 0 to 10 (0 no effect, 10 complete control)
[5] = Rate 62 g/ha, Postemergence, scale of 0 to 10 where 0 is no effect and 10 is complete control
[6] = Rate 250 g/ha, Postemergence, scale 0 to 10, 0 is no effect, 10 is complete control
[7] = Preemergence, Rate 62 g/ha, scale 0 to 10 (0 no effect, 10 complete control)
[8] = Rate 500 g/ha, Postemergence, scale 0 to 10
[9] = Postemergence (flood test species), Rate 125 g/ha, scale of 0 to 10 where 0 is no effect and 10 is complete control
[10] = Rate 62 g/ha, Postemergence section, flood test species, scale of 0 to 10 where 0 is no effect and 10 is complete control
[11] = Rate 250 g/ha, Postemergence (flood test), scale 0 to 10, 0 is no effect, 10 is complete control
[12] = Rate 500 g/ha, listed under Postemergence (flood test species), scale 0 to 10

## Cc1ccccc1Cn1c(=O)on(C(=O)N(c2ccc(Cl)cc2)C(C)C)c1=O [Compound 136]
bedstraw; [1]
  Bedstraw plant response rating: 5
bedstraw; [2]
  Bedstraw plant response rating (0 to 10 scale): 0
bedstraw; [3]
  Bedstraw plant response rating: 0
bedstraw; [4]
  Bedstraw plant response rating: 0
bedstraw; [5]
  Bedstraw plant response rating: 2
bedstraw; [6]
  Plant response rating, Bedstraw: 8
blackgrass; [1]
  Blackgrass plant response rating: 0
blackgrass; [7]
  Blackgrass plant response rating: 0
blackgrass; [2]
  Blackgrass plant response rating (0 to 10 scale): 4
blackgrass; [3]
  Blackgrass plant response rating: 4
blackgrass; [4]
  Blackgrass plant response rating: 6
blackgrass; [5]
  Blackgrass plant response rating: 0
blackgrass; [6]
  Plant response rating, Blackgrass: 3
blackgrass; [8]
  Blackgrass plant response rating: 5
Surinam grass; [1]
  B. signalgrass plant response rating: 0
Surinam grass; [7]
  B. signalgrass plant response rating: 3
Surinam grass; [2]
  B. signalgrass plant response rating (0 to 10 scale): 3
Surinam grass; [3]
  B. signalgrass plant response rating: 5
Surinam grass; [4]
  B. signalgrass plant response rating: 5
Surinam grass; [5]
  B. signalgrass plant response rating: 0
Surinam grass; [6]
  Plant response rating, B. signalgrass: 1
Surinam grass; Rate 500 g/ha, Postemergence, scale of 0 to 10 where 0 is no effect and 10 is complete control
  B. signalgrass plant response rating: 3
cocklebur; [1]
  Cocklebur plant response rating: 2
cocklebur; [7]
  Cocklebur plant response rating: 0
cocklebur; [2]
  Cocklebur plant response rating (0 to 10 scale): 0
cocklebur; [3]
  Cocklebur plant response rating: 0
cocklebur; [5]
  Cocklebur plant response rating: 1
cocklebur; [6]
  Plant response rating, Cocklebur: 2
cocklebur; [8]
  Cocklebur plant response rating: 4
corn; [1]
  Corn plant response rating: 0
corn; [7]
  Corn plant response rating: 0
corn; [2]
  Corn plant response rating (0 to 10 scale): 0
corn; [3]
  Corn plant response rating: 0
corn; [4]
  Corn plant response rating: 0
corn; [5]
  Corn plant response rating: 0
corn; [6]
  Plant response rating, Corn: 0
corn; [8]
  Corn plant response rating: 0
crabgrass; [1]
  Crabgrass plant response rating: 2
crabgrass; [7]
  Crabgrass plant response rating: 0
crabgrass; [2]
  Crabgrass plant response rating (0 to 10 scale): 4
crabgrass; [3]
  Crabgrass plant response rating: 7
crabgrass; [4]
  Crabgrass plant response rating: 8
crabgrass; [5]
  Crabgrass plant response rating: 1
crabgrass; [6]
  Plant response rating, Crabgrass: 8
crabgrass; [8]
  Crabgrass plant response rating: 9
rape; [1]
  Rape plant response rating: 0
rape; [7]
  Rape plant response rating: 0
rape; [2]
  Rape plant response rating (0 to 10 scale): 0
rape; [3]
  Rape plant response rating: 0
rape; [4]
  Rape plant response rating: 0
rape; [5]
  Rape plant response rating: 0
rape; [6]
  Plant response rating, Rape: 2
rape; [8]
  Rape plant response rating: 4
soybean; [1]
  Soybean plant response rating: 4
soybean; [7]
  Soybean plant response rating: 0
soybean; [2]
  Soybean plant response rating (0 to 10 scale): 0
soybean; [3]
  Soybean plant response rating: 0
soybean; [4]
  Soybean plant response rating: 0
soybean; [5]
  Soybean plant response rating: 3
soybean; [6]
  Plant response rating, Soybean: 4
soybean; [8]
  Soybean plant response rating: 5
Sugar beet; [1]
  Sugarbeets plant response rating: 4
Sugar beet; [7]
  Sugarbeets plant response rating: 4
Sugar beet; [2]
  Sugarbeets plant response rating (0 to 10 scale): 4
Sugar beet; [3]
  Sugarbeets plant response rating: 8
Sugar beet; [4]
  Sugarbeets plant response rating: 9
Sugar beet; [5]
  Sugarbeets plant response rating: 3
Sugar beet; [6]
  Plant response rating, Sugarbeets: 7
Sugar beet; [8]
  Sugarbeets plant response rating: 8
velvetleaf; [1]
  Velvetleaf plant response rating: 0
velvetleaf; [7]
  Velvetleaf plant response rating: 0
velvetleaf; [2]
  Velvetleaf plant response rating (0 to 10 scale): 0
velvetleaf; [3]
  Velvetleaf plant response rating: 0
velvetleaf; [4]
  Velvetleaf plant response rating: 4
velvetleaf; [5]
  Velvetleaf plant response rating: 0
velvetleaf; [6]
  Plant response rating, Velvetleaf: 0
velvetleaf; [8]
  Velvetleaf plant response rating: 2
wheat; [1]
  Wheat plant response rating: 0
wheat; [7]
  Wheat plant response rating: 0
wheat; [2]
  Wheat plant response rating (0 to 10 scale): 0
wheat; [3]
  Wheat plant response rating: 0
wheat; [4]
  Wheat plant response rating: 0
wheat; [5]
  Wheat plant response rating: 0
wheat; [6]
  Plant response rating, Wheat: 0
wheat; [8]
  Wheat plant response rating: 0
Wild oat; [1]
  Wild oats plant response rating: 0
Wild oat; [7]
  Wild oats plant response rating: 0
Wild oat; [2]
  Wild oats plant response rating (0 to 10 scale): 0
Wild oat; [3]
  Wild oats plant response rating: 0
Wild oat; [4]
  Wild oats plant response rating: 3
Wild oat; [5]
  Wild oats plant response rating: 0
Wild oat; [6]
  Plant response rating, Wild oats: 0
Wild oat; [8]
  Wild oats plant response rating: 3
Purple nutsedge; [1]
  Nutsedge plant response rating: 0
Purple nutsedge; [7]
  Nutsedge plant response rating: 0
Purple nutsedge; [2]
  Nutsedge plant response rating (0 to 10 scale): 0
Purple nutsedge; [3]
  Nutsedge plant response rating: 0
Purple nutsedge; [5]
  Nutsedge plant response rating: 0
Purple nutsedge; [6]
  Plant response rating, Nutsedge: 0
Purple nutsedge; [8]
  Nutsedge plant response rating: 0
rice; [9]
  Rice plant response rating: 0
rice; [10]
  Rice plant response rating: 0
rice; [11]
  Plant response rating, Rice: 0
rice; [12]
  Rice plant response rating: 0
Smallflower flatsedge; [9]
  S. Flatsedge plant response rating: 0
Smallflower flatsedge; [10]
  S. Flatsedge plant response rating: 0
Smallflower flatsedge; [11]
  Plant response rating, S. Flatsedge: 0
Smallflower flatsedge; [12]
  S. Flatsedge plant response rating: 0
Duck salad; [9]
  Ducksalad plant response rating: 0
Duck salad; [10]
  Ducksalad plant response rating: 0
Duck salad; [11]
  Plant response rating, Ducksalad: 0
Duck salad; [12]
  Ducksalad plant response rating: 0
bamyardgrass; [9]
  Barnyardgrass plant response rating: 0
bamyardgrass; [10]
  Barnyardgrass plant response rating: 0
bamyardgrass; [11]
  Plant response rating, Barnyardgrass: 0
bamyardgrass; Rate 500 g/ha, listed under Postemergence (flood test species), scale 0 to 10, 0 no effect, 10 complete control
  Barnyardgrass plant response rating: 0
